Experimental data: paper PMC11009648, “Development of an orally bioavailable mSWI/SNF ATPase degrader and acquired mechanisms of resistance in prostate cancer” (Proceedings of the National Academy of Sciences of the …, 2024)
Entries after “also recorded” stand apart in the source; their conditions may differ.

Experiments:
[1] = In vivo pharmacokinetics in mice; details: plasma; for Cmax: read-out: Cmax/C0
From the text: (§1) All experimental procedures relating to animal care, handling, and treatment were approved by the Institutional Animal Ethics Committee of Aurigene Oncology Ltd. based on the Committee for Control and Supervision of Experiments on Animals guidelines. Animals were included for experimentation after 1 wk of acclimatization to standard laboratory conditions and were provided with reverse osmosis-treated water and rodent pellet diet ad libitum.
(§2) The pharmacokinetic profile of AU-24118 was studied in both mice and rats. For assessment of oral bioavailability, AU-24118 was administered by intravenous (i.v.) and oral (p.o.) routes at 1 mg/kg and 30 mg/kg doses, respectively (n = 3). For the oral arm, AU-24118 was administered as a solution formulation in 10% PEG200, 50% of 20% D-α-Tocopherol polyethylene glycol 1000 succinate and 40% of 1% Tween-80 in water while AU-24118 was formulated in 2% DMA and 10% HPβCD in saline (qs) for the intravenous administration.
(§3) Concentrations of AU-24118 were determined in plasma samples using a nonvalidated (fit for purpose) LC–MS/MS method in positive Multiple Reaction Monitoring mode with transition pair of m/z: 633.11→344.00. Either Carbamazepine (with a transition pair of m/z: 237.07→194.10) or Telmisartan (with a transition pair of m/z: 515.16→276.00) were used as internal standards. Sample processing was carried out by protein precipitation followed by evaporation method. Compound concentrations were calculated using Analyst® software 1.7.2 with linear/quadratic regression algorithm (with 1/×2 weighting factor) over a quantification range of 1 ng/mL to 2,500 ng/mL with the low and high ends of this range defining the lower limit of quantitation and upper limit of quantitation, respectively.

[2] = tested on: VCaP castration-resistant tumor model; experiment: CRPC-VCaP xenograft efficacy study; type: in vivo
Description: Six-week-old CB17 (male) SCID mice were obtained from the breeding colony at the U-M. For all studies, tumors were measured two or three times per week using digital calipers, and tumor volumes were calculated using the formula (π/6) (L × W2), where L is length and W is width of the tumor. At study endpoint, mice were killed, and tumors were extracted and weighed. […] Once tumors grew to a palpable size (~400 mm^3), the mice were physically castrated. Once those tumors regained their precastration size, mice were then randomized and treated with either 15 mg/kg AU-24118 or vehicle by oral gavage 3 d per week with or without enzalutamide (10 mg/kg) by oral gavage 5 d per week for 4 wk.
IHC was performed on 4 µm formalin-fixed, paraffin-embedded tissue sections using BRG1 (SMARCA4), AR, FOXA1, ERG and C-Myc. The IHC process was performed on the Ventana ULTRA automated slide staining system using the Omnimap and Ultraview Universal DAB detection kit. The antibody details are provided in SI Appendix, Table S1. The following commercial kits from Roche-Ventana Medical System were used: Discovery CC1 (Cat No. 950-500), Discovery CC2 (Cat No. 950-123), OptiView Universal DAB Detection Kit (Cat No. 760-700), and OmniMap Universal DAB Detection Kit (Cat No. 760-149).
The TUNEL and In Situ Cell Death Detection Kits (TMR Red #12156792910; Roche Applied Science) were used to examine apoptosis, following the manufacturer’s instructions. Briefly, fixed sections were permeabilized with Triton X-100 and then washed in phosphate-buffered saline. Labeling was carried out at 37 °C for 60 min by addition of a reaction buffer that contained enzymes. A Zeiss Axiolmager M1 microscope was used to obtain images.

[3] = In vivo pharmacokinetics in rats; details: plasma; for Cmax: read-out: Cmax/C0
From the text: as §1, §2, §3

[4] = tested on: panel of human cancer or normal cell lines; experiment: Cell-TiterGlo viability assays in a panel of cell lines; type: cell-based; details: 5 d of treatment; sensitive: IC50 < 100 nM, resistant: IC50 > 100 nM
Description: Cells were seeded onto 96-well plates in appropriate culture media and allowed to adhere overnight prior to treatment. The next day, a nine-point serial dilution of the compounds was prepared and added to the plates. After treatment, the cells were then incubated for an additional 5 d. On the last day of treatment, the CellTiter-Glo cell viability assay (Promega) was then executed in accordance with the manufacturer’s guidelines. The signal (luminescence) from each well was determined using an Infinite M1000 Pro plate reader (Tecan). Relative viability was determined by dividing the signal from each well by the average of the control condition in each experiment. Finally, the data were analyzed and plotted using GraphPad Prism.

[5] = tested on: SMARCA4, PBRM1 and SMARCA2 in 22Rv1-AUR-3 xenografts; experiment: 22Rv1-AUR-3 xenograft pharmacodynamics study; details: 5 d; AU-24118 15 mg/kg oral gavage three times per week; zosuquidar 40 mg/kg i.p.
Description: (§4) Lysates were prepared using radioimmunoprecipitation assay buffer (Thermo Fisher) with cOmpleteTM protease inhibitor cocktail tablets (Sigma-Aldrich) added. Total protein for each sample was determined using the DC Protein Assay (Bio-Rad) according to the manufacturer’s instructions. A standardized quantity of protein was resolved using NuPAGE Tris-Acetate Protein Gel (3 to 8%) (Thermo Fisher) or NuPAGE Bis-Tris Protein Gel (4 to 12%) (Thermo Fisher) and probed with primary antibodies as indicated. Following incubation with secondary antibodies conjugated with horseradish peroxidase, membranes were imaged on an Odyssey Fc Imager (LiCOR Biosciences).
For the 22Rv1-AUR-3 model, bilateral subcutaneous dorsal flank tumors were established by injecting 1 × 10^6 cells suspended in a 1:1 mixture of serum-free medium and Matrigel (BD Biosciences). Once tumors reached an average volume of 100 mm^3, mice were randomized and treated with either 60 mg/kg AU-15330 by retro-orbital vein injection 3 times every other day and with or without 10 mg/kg, 20 mg/kg, or 40 mg/kg of zosuquidar by intraperitoneal injection daily for 5 d per week. […] Animals harboring tumors approaching that size were immediately killed. All in vivo studies were approved by the U-M IACUC.

[6] = tested on: SMARCA4 (BRG1) and PBRM1 in VCaP cells; experiment: Immunoblot of target degradation in VCaP cells; type: cell-based, human; details: 4 h, identical treatment conditions
Description: as §4

[7] = In vivo pharmacokinetics in mice; details: mouse, plasma, oral, dose escalation (Fig. 1G)
[8] = mouse, iv, CD1 Mice, I.V. 1mg/kg
[9] = mouse, po, CD1 Mice, P.O. 30mg/kg
[10] = mouse, mice, oral, 10mg/kg, dose escalation (Fig. 1G)
[11] = mouse, mice, oral, 30mg/kg, dose escalation (Fig. 1G)
[12] = after 5 d of treatment, 15 mg/kg

Nc1nnc(-c2ccccc2O)cc1-c1ccc(N2CCC(N3CCC(c4ccc(OC5CCC(=O)NC5=O)cc4)CC3)CC2)cc1 (stereo not shown) [AU-24118]
bioavailability ([1]; CD1, mouse, oral, mice, i.v. 1 mg/kg, p.o. 30 mg/kg, read-out: Oral bioavailability (%F)): 33.4%
AUC(0-inf) [1, 8]: 1680 ng·h/mL
AUC(0-t) [1, 8]: 1630 ng·h/mL
half-life ([1]; mouse, iv, CD1 Mice, I.V. 1mg/kg, read-out: Beta t1/2 (converted)): 4.76 h
clearance ([1]; mouse, iv, CD1 Mice, I.V. 1mg/kg, read-out: CI (Clearance)): 10 mL/min/kg
Cmax [1, 8]: 443 ng/mL
Vd ([1]; mouse, iv, CD1 Mice, I.V. 1mg/kg, read-out: Vdss): 3.3 L/kg
AUC(0-t) [1, 9]: 16300 ng·h/mL
Cmax [1, 9]: 1030 ng/mL
Tmax [1, 10]: 6 h
Cmax [1, 10]: 345 ng/mL
AUC(0-t) [1, 11]: 14700 ng·h/mL
Tmax [1, 11]: 3 h
Cmax [1, 11]: 1190 ng/mL
Tmax ([1]; mouse, mice, oral, 100mg/kg, dose escalation (Fig. 1G)): 4 h
body weight changes ([2]; CRPC VCaP xenograft mice, throughout the treatments): no significant body weight changes
apoptosis in tumors (cleaved PARP, TUNEL) [2, 12]: induced apoptosis
downregulation of direct targets (SMARCA2, SMARCA4, PBRM1) and lineage proteins (AR, ERG, C-Myc, PSA) in tumors, Western blot [2, 12]: robust downregulation
tumor response ([2]; castrated CB17 SCID mice, enzalutamide 10 mg/kg oral gavage five times weekly, AU-24118 15 mg/kg oral gavage three times weekly): regression in every tumor; also recorded: regressed every tumor in the cohort
bioavailability ([3]; Wistar, rat, oral, rats, i.v. 1 mg/kg, p.o. 30 mg/kg, read-out: Oral bioavailability (%F)): 16.3%
AUC(0-inf) ([3]; iv, Wistar Rat, I.V. 1mg/kg): 756 ng·h/mL
AUC(0-t) ([3]; iv, Wistar Rat, I.V. 1mg/kg): 670 ng·h/mL
half-life ([3]; iv, Wistar Rat, I.V. 1mg/kg, read-out: Beta t1/2 (converted)): 8.02 h
clearance ([3]; iv, Wistar Rat, I.V. 1mg/kg, read-out: CI (Clearance)): 22.1 mL/min/kg
Cmax ([3]; iv, Wistar Rat, I.V. 1mg/kg): 96.2 ng/mL
Vd ([3]; iv, Wistar Rat, I.V. 1mg/kg, read-out: Vdss): 13.3 L/kg
AUC(0-t) ([3]; po, Wistar Rat, P.O. 30mg/kg): 3280 ng·h/mL
Cmax ([3]; po, Wistar Rat, P.O. 30mg/kg): 184 ng/mL
cell viability preference across diverse cell lines [4]: notable preference for inhibiting transcription factor–addicted cancer cells
degradation of target proteins in tumors, immunoblot [5]: mild degradation of its target proteins
degradation of SMARCA4 and PBRM1, immunoblot [6]: comparable degradation efficacy of SMARCA4 and PBRM1 to AU-15330
AUC(0-t) ([7]; 10mg/kg): 4930 ng·h/mL
AUC(0-t) ([7]; 100mg/kg): 32200 ng·h/mL
Cmax ([7]; 100mg/kg, read-out: Cmax/C0): 1930 ng/mL
